In patent US11234437B2 (priority 2017, dated 2022):

Assays:
[1] = system: Magnaporthe grisea (Pyricularia oryzae); assay: microbe, parasite or virus in culture; format: cell-based; settings: read-out: control of Magnaporthe grisea
[2] = system: Gibberella zeae (Fusarium graminearum); assay: whole plant or invertebrate; format: in vivo; settings: in Triticum aestivum, read-out: control of Gibberella zeae
[3] = system: Monographella nivalis (Microdochium nivale); assay: Monographella nivalis (Microdochium nivale) / liquid culture (foot rot cereals); format: cell-based; settings: compared to untreated control
Method: Monographella nivalis (Microdochium nivale)/Liquid Culture (Foot Rot Cereals)
(§1) Conidia of the fungus from cryogenic storage are directly mixed into nutrient broth (PDB potato dextrose broth). After placing a (DMSO) solution of test compound into a microtiter plate (96-well format), the nutrient broth containing the fungal spores is added. The test plates are incubated at 24° C. and the inhibition of growth is determined photometrically 4-5 days after application.

Gaeumannomyces graminis = Gaeumannomyces graminis / liquid culture (take-all of cereals); format: cell-based; settings: compared to untreated control
Method: as §1, with “Mycelial fragments of” for “Conidia of”, “storage were” for “storage are”

SMILES | inhibition of growth at 20 ppm [1] [%] | melting point [°C] | pest or weed control at 200 ppm [2] [%] | inhibition of growth at 20 ppm [3] [%] | inhibition of growth at 20 ppm (Gaeumannomyces graminis) [%]
Cc1cccc2cc(C(=O)N[C@](C)(Cc3ccccc3)CC(F)(F)F)cnc12 [Compound F-18, N-[(1R)-1-benzyl-3,3,3-trifluoro-1-methyl-propyl]-8-methyl-quinoline-3-carboxamide] | ≥ 80 |  |  |  | 
C=C(C)CC(C)(Cc1ccccc1)NC(=O)c1cnc2c(F)c(F)ccc2c1 (stereo not drawn) [X.010, N-(1-benzyl-1,3-dimethyl-but-3-enyl)-7,8-difluoro-quinoline-3-carboxamide] | ≥ 80 | 94 to 96 | ≥ 80 | ≥ 80 | 
CC(C)C[C@](C)(Cc1ccccc1)NC(=O)c1cnc2c(F)c(F)ccc2c1 [Compound F-14, N-[(1R)-1-benzyl-1,3-dimethyl-butyl]-7,8-difluoro-quinoline-3-carboxamide] | ≥ 80 |  |  |  | 
CC(C)C[C@@](C)(Cc1ccccc1)NC(=O)c1cnc2c(F)cccc2c1 [Compound F-1, N-[(1S)-1-benzyl-1,3-dimethyl-butyl]-8-fluoro-quinoline-3-carboxamide] | ≥ 80 |  |  | ≥ 80 | ≥ 80
CC(C)(F)CC(C)(Cc1ccccc1)NC(=O)c1cnc2c(F)cccc2c1 (stereo not drawn) [X.015, N-(1-benzyl-3-fluoro-1,3-dimethyl-butyl)-8-fluoro-quinoline-3-carboxamide] | ≥ 80 |  | ≥ 80 | ≥ 80 | 
C=C(C)C[C@](C)(Cc1ccccc1)NC(=O)c1cnc2c(F)c(F)ccc2c1 [Compound F-11, N-[(1R)-1-benzyl-1,3-dimethyl-but-3-enyl]-7,8-difluoro-quinoline-3-carboxamide] | ≥ 80 |  | ≥ 80 |  | 
CC(C)(F)C[C@@](C)(Cc1ccccc1)NC(=O)c1cnc2c(F)cccc2c1 [Compound F-15, N-[(1R)-1-benzyl-3-fluoro-1,3-dimethyl-butyl]-8-fluoro-quinoline-3-carboxamide] | ≥ 80 |  | ≥ 80 | ≥ 80 | 
C=C(C)CC(C)(Cc1ccccc1)NC(=O)c1cnc2c(F)cccc2c1 (stereo not drawn) [X.009, N-(1-benzyl-1,3-dimethyl-but-3-enyl)-8-fluoro-quinoline-3-carboxamide] | ≥ 80 |  | ≥ 80 | ≥ 80 | ≥ 80
CC(C)(F)C[C@](C)(Cc1ccccc1)NC(=O)c1cnc2c(F)cccc2c1 [Compound F-16, N-[(1S)-1-benzyl-3-fluoro-1,3-dimethyl-butyl]-8-fluoro-quinoline-3-carboxamide] | ≥ 80 |  | ≥ 80 | ≥ 80 | 
C[C@@](Cc1ccccc1)(CC(F)(F)F)NC(=O)c1cnc2c(F)c(F)ccc2c1 [Compound F-22, N-[(1R)-1-benzyl-3,3,3-trifluoro-1-methyl-propyl]-7,8-difluoro-quinoline-3-carboxamide] | ≥ 80 |  | ≥ 80 |  | 
C[C@@](Cc1ccccc1)(CC(F)(F)F)NC(=O)c1cnc2c(F)cccc2c1 [Compound F-8, N-[(1R)-1-benzyl-3,3,3-trifluoro-1-methyl-propyl]-8-fluoro-quinoline-3-carboxamide] | ≥ 80 |  |  |  | 
C=C(C)C[C@@](C)(Cc1ccccc1)NC(=O)c1cnc2c(F)cccc2c1 [Compound F-6, N-[(1S)-1-benzyl-1,3-dimethyl-but-3-enyl]-8-fluoro-quinoline-3-carboxamide] |  |  | ≥ 80 | ≥ 80 | ≥ 80
CC(C)C[C@](C)(Cc1ccccc1)NC(=O)c1cnc2ccccc2c1 [Compound F-4, N-[(1R)-1-benzyl-1,3-dimethyl-butyl]quinoline-3-carboxamide] | ≥ 80 |  |  |  | ≥ 80
Cc1cccc2cc(C(=O)NC(C)(Cc3ccccc3)CC(F)(F)F)cnc12 (stereo not drawn) [X.004, N-(1-benzyl-3,3,3-trifluoro-1-methyl-propyl)-8-methyl-quinoline-3-carboxamide] | ≥ 80 | 120 to 123 | ≥ 80 | ≥ 80 | 
CC(C)CC(C)(Cc1ccccc1)NC(=O)c1cnc2c(F)cccc2c1 (stereo not drawn) [X.002, N-(1-benzyl-1,3-dimethyl-butyl)-8-fluoro-quinoline-3-carboxamide] | ≥ 80 | 110 to 112 |  | ≥ 80 | ≥ 80
CC1(CC(C)(Cc2ccccc2)NC(=O)c2cnc3c(F)cccc3c2)CC1 (stereo not drawn) [X.003, N-[1-benzyl-1-methyl-2-(1-methylcyclopropyl)ethyl]-8-fluoro-quinoline-3-carboxamide] | ≥ 80 | 126 to 129 | ≥ 80 |  | ≥ 80
CC(C)CC(C)(Cc1cccc(F)c1)NC(=O)c1cnc2c(F)cccc2c1 (stereo not drawn) [X.011, 8-fluoro-N-[1-[(3-fluorophenyl)methyl]-1,3-dimethyl-butyl]quinoline-3-carboxamide] | ≥ 80 | 45 to 47 |  | ≥ 80 | ≥ 80
CC(F)(F)CC(C)(Cc1ccccc1)NC(=O)c1cnc2c(F)cccc2c1 (stereo not drawn) [X.014, N-(1-benzyl-3,3-difluoro-1-methyl-butyl)-8-fluoro-quinoline-3-carboxamide] | ≥ 80 |  | ≥ 80 |  | 
CC(C)(C)CC(C)(Cc1ccccc1)NC(=O)c1cnc2c(F)cccc2c1 (stereo not drawn) [X.016, N-(1-benzyl-1,3,3-trimethyl-butyl)-8-fluoro-quinoline-3-carboxamide] | ≥ 80 | 48 to 50 | ≥ 80 | ≥ 80 | 
C[C@@](Cc1ccccc1)(CC(F)(F)F)NC(=O)c1cnc2c(Cl)cccc2c1 [Compound F-20, N-[(1R)-1-benzyl-3,3,3-trifluoro-1-methyl-propyl]-8-chloro-quinoline-3-carboxamide] | ≥ 80 |  |  |  | 
CC(C)C[C@@](C)(Cc1ccccc1)NC(=O)c1cnc2ccccc2c1 [Compound F-3, N-[(1S)-1-benzyl-1,3-dimethyl-butyl]quinoline-3-carboxamide] | ≥ 80 |  |  | ≥ 80 | ≥ 80
C=C(C)C[C@@](C)(Cc1ccccc1)NC(=O)c1cnc2c(F)c(F)ccc2c1 [Compound F-12, N-[(1S)-1-benzyl-1,3-dimethyl-but-3-enyl]-7,8-difluoro-quinoline-3-carboxamide] | ≥ 80 |  |  | ≥ 80 | 
CC(F)(F)C[C@@](C)(Cc1ccccc1)NC(=O)c1cnc2c(F)cccc2c1 [Compound F-31, N-[(1R)-1-benzyl-3,3-difluoro-1-methyl-butyl]-8-fluoro-quinoline-3-carboxamide] | ≥ 80 |  | ≥ 80 | ≥ 80 | 
CC(C)(C)C[C@](C)(Cc1ccccc1)NC(=O)c1cnc2c(F)cccc2c1 [Compound F-10, N-[(1R)-1-benzyl-1,3,3-trimethyl-butyl]-8-fluoro-quinoline-3-carboxamide] |  |  | ≥ 80 |  | ≥ 80
CC(C)(C)C[C@@](C)(Cc1ccccc1)NC(=O)c1cnc2c(F)cccc2c1 [Compound F-9, N-[(1S)-1-benzyl-1,3,3-trimethyl-butyl]-8-fluoro-quinoline-3-carboxamide] |  |  | ≥ 80 | ≥ 80 | ≥ 80
CC(Cc1ccccc1)(CC(F)(F)F)NC(=O)c1cnc2c(Cl)cccc2c1 (stereo not drawn) [X.005, N-(1-benzyl-3,3,3-trifluoro-1-methyl-propyl)-8-chloro-quinoline-3-carboxamide] | ≥ 80 | 141 to 144 | ≥ 80 | ≥ 80 | 
C=C(C)C[C@](C)(Cc1ccccc1)NC(=O)c1cnc2c(F)cccc2c1 [Compound F-5, N-[(1R)-1-benzyl-1,3-dimethyl-but-3-enyl]-8-fluoro-quinoline-3-carboxamide] | ≥ 80 |  | ≥ 80 | ≥ 80 | 
CC(Cc1ccccc1)(CC(F)(F)F)NC(=O)c1cnc2c(F)cccc2c1 (stereo not drawn) [X.006, N-(1-benzyl-3,3,3-trifluoro-1-methyl-propyl)-8-fluoro-quinoline-3-carboxamide] | ≥ 80 | 158 to 160 | ≥ 80 |  | ≥ 80
C[C@](Cc1ccccc1)(CC(F)(F)F)NC(=O)c1cnc2c(F)cccc2c1 [Compound F-7, N-[(1S)-1-benzyl-3,3,3-trifluoro-1-methyl-propyl]-8-fluoro-quinoline-3-carboxamide] | ≥ 80 |  | ≥ 80 |  | 
CC(C)C[C@](C)(Cc1ccccc1)NC(=O)c1cnc2c(F)cccc2c1 [Compound F-2, N-[(1R)-1-benzyl-1,3-dimethyl-butyl]-8-fluoro-quinoline-3-carboxamide] | ≥ 80 |  |  | ≥ 80 | ≥ 80
